Measurements published in the SangsterLogP compilation.

Assay: method code SF-AS, from DOI: 10.1016/0009-2797(77)90026-6

Row | SMILES | logP
1 | O=NN1CCCC(O)C1 (configuration not stated) | -0.47
2 | CC1CN(C(=O)c2ccccc2)CC(C)N1N=O (configuration not stated) | 1.04
3 | O=NN1CCSCC1 | 0.4
4 | O=NN1CCC(Cl)C(Cl)C1 (configuration not stated) | 1.04
5 | CC1CCCN(N=O)C1 (configuration not stated) | 0.99
6 | O=NN1CCC(Br)C(Br)C1 (configuration not stated) | 1.23
7 | COCCN(CCOC)N=O | -0.38
8 | CN1CCN(N=O)CC1 | 0.2
9 | CCN(N=O)C(=O)N(C)C | 0.71
10 | CC1(C)CCCC(C)(C)N1N=O | 2.49
11 | O=NN1CC=CCC1 | 1.18
12 | O=NN1CCCCCCCC1 | 2.04
13 | CN(C)C(=O)N(C)N=O | 0.36
14 | CC1CN(N=O)CC(C)N1 (configuration not stated) | 0.73
15 | CC1CN(N=O)CCN1N=O (configuration not stated) | -0.28
16 | CC1CCC(C)N1N=O (configuration not stated) | 0.86
17 | O=NN(CC(F)(F)F)CC(F)(F)F | 2.15
18 | N#CCN(CC#N)N=O | 0.04
19 | CC(C)(C)C1CCN(N=O)CC1 | 2.54
20 | CC1CN(N=O)C(C)CN1N=O (configuration not stated) | 0.15
21 | O=NN1CCN(N=O)CC1 | -0.85
22 | O=NN1CCCC1 | -0.19
23 | O=NN1CCCCC1 | 0.63
24 | CN(N=O)C1CCCCC1 | 1.43

Row | SMILES | logP
25 | N#CCCN(CCC#N)N=O | 0.08
26 | CC1CCN(N=O)CC1 | 1.05
27 | O=NN1CCC(O)CC1 | -0.89
28 | O=NN1CCCN(N=O)CC1 | -0.51
29 | O=NN1CCCCCCC1 | 1.48
30 | CC1CCCC(C)N1N=O (configuration not stated) | 1.36
31 | CCCCCCCCCCCCN(C)N=O | 2.18
32 | CC1CN(N=O)CC(C)O1 (configuration not stated) | 0.32
33 | CC1CN(N=O)CC(C)N1N=O (configuration not stated) | 0.08
34 | CC1C(c2ccccc2)OCCN1N=O (configuration not stated) | 2.09
35 | O=NN1CCC(=O)CC1 | -0.47
36 | CC1CCCCN1N=O (configuration not stated) | 0.71
37 | CC1CN(N=O)CC(C)N1C(=O)c1ccccc1 (configuration not stated) | 1.41
38 | CN(CC(C)(C)C)N=O | 1.34
39 | CC1CC(C)CN(N=O)C1 (configuration not stated) | 1.53
40 | O=NN1CCCCCC1 | 0.92
41 | O=NN1CCNCC1 | 0.18
42 | CCN(CC)C(=O)N(CC)N=O | 1.54
43 | CCN(CC)C(=O)N(C)N=O | 1.11
44 | O=NN1CCC(c2ccccc2)CC1 | 2.59
45 | O=NN1CC=CC1 | 0.26
46 | CCOCCN(CCOCC)N=O | 0.79
47 | CC1C(C)N(N=O)C(C)C(C)N1N=O (configuration not stated) | 0.91
